Assays:
[1] = tested on: HCVcc (Jc1/JFH genotype 2a); format: cell-based, hepatitis C virus
HCVpp [2] = settings: 50 μM, added to HEK-293T producer cells; luciferase in infected Huh-7.5 cells
influenza A virus = settings: cited from earlier work; for antiviral activity against influenza A virus: among compounds 1–9
in vitro = settings: human, CC50, Huh-7.5 cells, MTS assay, 72 h
[3] = tested on: HCV replication (Huh7-J17 replicon cell line); assay: HCV replicon luciferase assay in Huh7-J17 cells; settings: 72 h; for effect on HCV replication process (luciferase activity): Huh7-J17 replicon cells, different doses
[4] = MTS cytotoxicity alongside the Huh7-J20 SEAP assay; settings: human, Huh7-J20 cells
HCVcc = HCVcc dose-response SEAP reporter assay in Huh7-J20 cells; settings: for IC50: Hepatitis C virus, Huh7-J20, 72 h; for selectivity index (SI), CC50/IC50 ratio: Huh7-J20 cells, HCVcc
HCV E2 glycoprotein = assay: Western blot of E2 glycoprotein accumulation in transfected HEK293T cells; settings: anti-E2 MAb AP33, 48 h post transfection
[5] = tested on: classical swine fever virus; settings: cited from earlier work
HCVpp [6] = assay: microbe, parasite or virus in culture; settings: Hepatitis C virus, read-out: inhibition of infection (HCVpp)

CC1(C)O[C@@H]2[C@H](O1)[C@@H](CO[C@@H]1C[C@@H](OCc3ccccc3)[C@H](OCc3ccccc3)[C@@H](COCc3ccccc3)O1)O[C@H]2n1ccc(=O)n(C(=O)c2ccccc2)c1=O [Compound 4]
anti-HCV activity (reduction of pseudoplaques) [1]: high antiviral activity | reduction of HCVpp production and/or infectivity relative to DMSO control (HCVpp [2]): about 80% | antiviral activity against influenza A virus (influenza A virus): most active | CC50 (in vitro): 151 µM | effect on HCV replication process (luciferase activity) [3]: no effect on HCV replication process | CC50 [4]: 142 µM | IC50 (HCVcc): 2.1 µM | selectivity index (SI), CC50/IC50 ratio (HCVcc): 67.6 | accumulation of E2 glycoprotein in HEK293T cells (HCV E2 glycoprotein): no change in the accumulation

CC1(C)O[C@@H]2[C@H](O1)[C@@H](CO[C@@H]1C[C@@H](OCc3ccccc3)[C@H](OCc3ccccc3)[C@@H](CO[Si](C)(C)C(C)(C)C)O1)O[C@H]2n1ccc(=O)[nH]c1=O [Compound 5]
anti-HCV activity (reduction of pseudoplaques) [1]: no obvious anti-HCV activity | CC50 (in vitro): 83 µM

CC(=O)OC[C@H]1O[C@H](OC[C@H]2O[C@@H](n3ccc(=O)[nH]c3=O)[C@@H]3OC(C)(C)O[C@@H]32)C[C@@H](OC(C)=O)[C@@H]1OC(C)=O [Compound 6]
anti-HCV activity (reduction of pseudoplaques) [1]: no obvious anti-HCV activity | CC50 (in vitro): 210 µM

O=c1ccn([C@@H]2O[C@H](CO[C@@H]3C[C@@H](O)[C@H](O)[C@@H](CO)O3)[C@@H](O)[C@H]2O)c(=O)[nH]1 [Compound 9]
anti-HCV activity (reduction of pseudoplaques) [1]: minor anti-HCV activity | CC50 (in vitro): 245 µM

CC(C)OC(=O)[C@H](C)N[P@](=O)(OC[C@H]1O[C@@H](n2ccc(=O)[nH]c2=O)[C@](C)(F)[C@@H]1O)Oc1ccccc1 [Sofosbuvir, reference compound]
IC50 ([3]; Hepatitis C virus): 0.028 µM | IC50 (HCVcc): 0.26 µM | selectivity index (SI), CC50/IC50 ratio (HCVcc): about 120

CC1(C)O[C@@H]2[C@H](O1)[C@@H](CO[C@@H]1C[C@@H](OCc3ccccc3)[C@H](OCc3ccccc3)[C@@H](COCc3ccccc3)O1)O[C@H]2n1ccc(=O)[nH]c1=O [Compound 3]
anti-HCV activity (reduction of pseudoplaques) [1]: minor anti-HCV activity | CC50 (in vitro): 89 µM

CC1(C)O[C@@H]2[C@H](O1)[C@@H](CO[C@@H]1C[C@@H](OCc3ccccc3)[C@H](OCc3ccccc3)[C@@H](CO)O1)O[C@H]2n1ccc(=O)n(C(=O)c2ccccc2)c1=O [IW7]
ability to inhibit influenza A virus (influenza A virus): most active | ability to inhibit classical swine fever virus [5]: most active

CC(=O)O[C@H]1[C@H](C)O[C@H](OC[C@H]2O[C@@H](n3ccc(=O)[nH]c3=O)[C@@H]3OC(C)(C)O[C@@H]32)C[C@@H]1O[Si](C)(C)C(C)(C)C [Compound 1]
anti-HCV activity (reduction of pseudoplaques) [1]: no obvious anti-HCV activity | CC50 (in vitro): 85 µM

CC(=O)N[C@H]1[C@@H](O[C@@H]2O[C@H](C[C@@H](O)[C@H]3O[C@@H](n4ccc(=O)[nH]c4=O)[C@H](O)[C@@H]3O)[C@H](O)[C@H](O)[C@H]2NC(=O)/C=C/CCCCCCCCCC(C)C)O[C@H](CO)[C@@H](O)[C@@H]1O [Tunicamycin]
inhibition at 5 µM (HCVpp [6]): > 80%

CC(=O)OC[C@H]1O[C@H](OC[C@H]2O[C@@H](n3ccc(=O)n(Cc4ccccc4)c3=O)[C@@H]3OC(C)(C)O[C@@H]32)C[C@@H](OC(C)=O)[C@@H]1OC(C)=O [Compound 8]
anti-HCV activity (reduction of pseudoplaques) [1]: minor anti-HCV activity | CC50 (in vitro): 223 µM

CC1(C)O[C@@H]2[C@H](O1)[C@@H](CO[C@@H]1C[C@@H](OCc3ccccc3)[C@H](OCc3ccccc3)[C@@H](CO[Si](C)(C)C(C)(C)C)O1)O[C@H]2n1ccc(=O)n(C(=O)c2ccccc2)c1=O [IW3]
ability to inhibit influenza A virus (influenza A virus): most active | ability to inhibit classical swine fever virus [5]: most active

CC(=O)O[C@H]1[C@H](C)O[C@H](OC[C@H]2O[C@@H](n3ccc(=O)n(C(=O)c4ccccc4)c3=O)[C@@H]3OC(C)(C)O[C@@H]32)C[C@@H]1O[Si](C)(C)C(C)(C)C [Compound 2]
anti-HCV activity (reduction of pseudoplaques) [1]: high antiviral activity | reduction of HCVpp production and/or infectivity relative to DMSO control (HCVpp [2]): about 80% | antiviral activity against influenza A virus (influenza A virus): most active | CC50 (in vitro): 119 µM | effect on HCV replication process (luciferase activity) [3]: no effect on HCV replication process | CC50 [4]: 113 µM | IC50 (HCVcc): 8.9 µM | selectivity index (SI), CC50/IC50 ratio (HCVcc): 12.7 | accumulation of E2 glycoprotein in HEK293T cells (HCV E2 glycoprotein): no change in the accumulation
